{"source": "patent US11400104B2", "about": "“Skeletal removal of bisphosphonates” (The Regents of the University of California, priority 2016, dated 2022)", "key": {"mouse cranial bone": {"test_system": "mouse cranial bone", "experiment": "cranial bone displacement: AF647-ZOL pre-adsorbed via IV, FAM-ZOL sub-periosteal injection", "type": "in vivo", "conditions": "IV injection; cryo-cross sections", "method": "FIG. 12A to FIG. 12C show the displacement and replacement of AF647-ZOL and 5-FAM-ZOL. FIG. 12A are fluorescent images of cranial bone. AF647-ZOL (50 μM) was pre-adsorbed on cranial bone via IV injection. 5-FAM-ZOL at the indicated doses was directly injected to the sub-periosteal space. […] The first bars of each set are for AF647-ZOL and the second bars of each set are for 5-FAM-ZOL. *, P<0.05 vs Veh by Dunnett's test.\nMice were pre-treated by 100 μl of 50 μM AF647-ZOL retro-orbital IV injection. Six days later, mice received sub-periosteal injection to cranial bone with 10 μl of 0 μM, 1 μM, 10 μM, or 50 μM FAM-ZOL. The cranial bone was harvested and soft tissues were removed. The fluorescent signals of AF647 and FAM were measured by standardized fluorescent biophotonics. The cranial bones were then prepared for cryosection. Cross-sections were made by the tape method and evaluated by confocal laser scanning microscopy."}, "[1]": {"test_system": "mouse femur trabecular bone", "experiment": "micro CT evaluation of mouse femur trabecular structure (anti-resorptive function in vivo)", "conditions": "IV 184 μM×100 μL; femurs 2 weeks after injection; FIG. 14", "method": "FIG. 19A to FIG. 19C present evidence that certain alkylidene bisphosphonates can be used to displace active BPs in vivo in the mouse model. […] FIG. 19B outlines the protocol for the experiments using MHDP to treat C57B16 mice. An ONJ-like lesion was generated by ZOL IV injection into the mouse, followed by extraction of the maxillary first molar. One day prior to the tooth extraction, a group of mice received intra-oral injection of 2 μg MHDP and another group received IV injection of 100 μg MHDP. FIG. 19C presents images of the mouse maxilla.\nThis study determines the anti-resorptive function of FL-BP in vivo, as compared to ZOL. Female B6 mice were injected with 50 μM ZOL (n=6), 50 μM FL-BP (n=6) or 0.9% NaCl vehicle solution (control: n=6) via tail vein. Three weeks later, mice were euthanized and femur and L4/L5 were harvested. After fixed in 10% buffered formalin, bone samples were subjected to micro CT analysis. The anti-resorptive function were quantitatively established by the trabecular bone three-dimensional morphometry (e.g., BV/TV, Tb.N, Tb.Th, TbSp). FL-BPs with minimal or no pharmacological BP function are used.\nMice were IV injected with 0.9% NaCl (vehicle solution), ZOL (184 μM×100 μL=5.0 μg/animal) or AF647-ZOL (184 μM×100 μL=22.0 μg/animal) and femurs were harvested 2 weeks after injection. The micro CT data were compared."}, "mouse maxilla": {"test_system": "mouse maxilla", "experiment": "intra-oral injection of AF647-ZOL into maxilla of mice pre-injected IV with FAM-ZOL, fluorescent biophotonics", "type": "in vivo", "method": "FIG. 10 are representative images of mice maxilla. AF647-ZOL was orally injected into maxilla of mice pre-injected with 5-FAM-ZOL.\nThe mouse intra-oral injection protocol was established by using a Hamilton syringe with a 33-gauge needle. Under a surgical microscope, 2 μl solution was injected to the palatal gingiva of left first molar of mouse maxilla. After slow injection, the needle was left in the tissue for 3 minutes and then gently removed.\nUsing this method, 2 μl of 0 μM, 0.5 μM or 5.0 μM AF647-ZOL was injected to mouse maxillary oral mucosa to mice 6 days after retro-orbital IV injection of 100 μl of 50 μM FAM-ZOL. Mouse tissues were harvested 1 day after oral injection and maxillary bones were subjected to standardized fluorescent biophotonics image obtained using an excitation wavelength of 460 nm and a 515 nm filter (LAS3000, FUJIFILM Corp)."}, "[2]": {"experiment": "hydroxyapatite (HAP) binding affinity, relative retention times normalized to RIS", "conditions": "FIG. 7", "method": "FIG. 7 is a bar graph showing hydroxyapatite (HAP) binding affinity of Zoledronate (ZOL), ROX-RIS, 5-FAM-ZOL, and AF647-ZOL. Relative retention times were normalized to RIS.\nHydroxyapatite assays indicate that the FL-BPs generally retain substantial affinity for bone mineral that reflect the affinity of the BP component and to a lesser extent, the affinity of the conjugated fluorophore. Hydroxyapatite (Macro-Prep® Ceramic hydroxyapatite Type II […]) was obtained from Bio-Rad Laboratories, Inc. Hercules, Calif. Accurately weighed hydroxyapatite powder (1.4-1.6 mg) was suspended in a 4 mL clear vial containing the appropriate volume of assay buffer (0.05% (wt/vol) Tween20, 10 μM EDTA and 100 mM HEPES pH=7.4) for 3 hours. Hydroxyapatite was then incubated with increasing amounts of FAM-BP and ROX-BP (0, 25, 50, 100, 200, and 300 μM). Samples were gently shaken for 3 hours at 37° C. in appropriate volume of assay buffer (0.05% (wt/vol) Tween20, 10 μM EDTA and 100 mM HEPES pH=7.4). Subsequent to the equilibrium period, the vials were centrifuged at 10,000 rpm for 5 minutes to separate the solids and the supernatant. 0.3 mL of the supernatant was collected and the equilibrium solution concentration is measured by using Shimadzu UV-VIS spectrometer. For the calibration series, FL-BP probe standards were prepared by serial dilution from the stock solution with the same isotherm buffer to give the range from 0 to 400 μM. Calibration curves were constructed using standard solutions of the target FL-BPs. Fluorescent emission can also be used to calculate the binding parameters. Nonspecific binding was measured with a similar procedure in the absence of hydroxyapatite as control. Binding parameters (Kd and Bmax, represent the equilibrium dissociate constant and maximum number of binding sites, respectively) were calculated using the PRISM program (Graphpad, USA). The binding parameters of each compound was measured in 5 independent experiments. […]"}, "mouse femurs": {"test_system": "mouse femurs", "experiment": "AF647-ZOL signal in distant bone (femurs) in the BRONJ mouse model", "type": "in vivo", "method": "AF647-ZOL was applied by intra-oral injection or IV injection 1 day prior to tooth extraction. FIG. 16B are images of mouse maxilla and the oral mucosa inflammation and swelling (white dotted lines, left and right panels) with various degrees of jawbone exposure (arrow) at the tooth extraction site of ZOL-treated mice (BRONJ control: n−4).\nMice received a bolus IV injection of ZOL (440 μg/Kg; 294 μM×100 μL=8.0 μg/animal) from retro-orbital venous plexus. […] The AF647-ZOL signal in distant bone was assessed in femurs."}}, "note": "“Also recorded” adds a separate entry of the source.", "data": [{"smiles": "CC1(C)C(C=CC=CC=C2N(CCCS(=O)(=O)O)c3ccc(S(=O)(=O)O)cc3C2(C)CCCCCC(=O)NCC(O)C[n+]2ccn(CC(O)(P(=O)(O)O)P(=O)(O)O)c2)=[N+](CCCS(=O)(=O)O)c2ccc(S(=O)(=O)O)cc21", "note": "(centres unmarked) [AF647-ZOL]", "values": [{"measurement": "location of AF647-ZOL labeling in cranial bone", "setting": "mouse cranial bone", "value": "external and internal bone surfaces, as well as trabecular surface"}, {"measurement": "bone structural parameters", "setting": "[1]", "value": "did not change any of bone structural parameters"}, {"measurement": "AF647 signal at and around the injection site on the palatal bone", "setting": "mouse maxilla; 2 μl of 0, 0.5 or 5.0 μM intra-oral, harvested 1 day after", "value": "dose dependent adsorption"}, {"measurement": "displacement of pre-adsorbed FAM-ZOL in maxilla", "setting": "mouse maxilla; FAM-ZOL 100 μl of 50 μM IV 6 days before AF647-ZOL intra-oral injection, qualitative", "value": "pre-adsorbed FAM-ZOL was removed; also recorded: Reduction of FAM-ZOL signal was observed qualitatively"}, {"measurement": "systemic distribution to the distant skeletal system (femur)", "setting": "mouse maxilla; intra-oral injection", "value": "did not result in systemic distribution to the distant skeletal system"}, {"measurement": "influence of the fluorophore on hydroxyapatite affinity", "setting": "[2]", "value": "small reduction"}, {"measurement": "AF647-ZOL signal in femurs", "setting": "mouse femurs; IV injection 500 μM×100 μL", "value": "clear AF647-ZOL signal; also recorded: clearly observed"}, {"measurement": "AF647-ZOL signal in femurs", "setting": "mouse femurs; intra-oral injection 250 μM×2 μL", "value": "not and did not result in a detectable fluorescent signal"}]}]}
